The subject of one experiment is AR / CBP ternary complex. Description: Ternary complex formation assay (sandwich ELISA, AR capture / CBP detection) in VCaP cell lysates. Format: cell-based. As to conditions: 1.5 hours treatment, sandwich ELISA (AR capture, CBP or p300 detection). An outline of the steps: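 VCaP cells (50K/well, 5% charcoal-stripped FBS, ≥3 days) treated with bifunctional compound for 1.5 h, then lysed 30 min at 4 °C. AR captured on anti-AR (AR 441) plates; bound CBP or p300 detected by rabbit mAb plus HRP secondary. QuantaRed chemifluorescence read at ex 570/em 585, immediately and at 5 and 15 min.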
For orientation: In an ELISA, binding on a coated surface is turned into a signal by an enzyme label.

The subject of a further experiment is VCaP cells. In words: VCaP growth inhibition assay. Format: cell-based. The following applies: 30 pM R1881, 9 days, CTG. An outline of the steps:
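VCaP cells in phenol red-free DMEM/5% CSS, pre-incubated 72 h, then stimulated with R1881 (final 30 pM) and treated with 1:5 serial dilutions (final 100 nM to 10 fM) for 9 days at 37 °C. Viability by CellTiter-Glo luminescence; IC50 from 4-parameter logistic fit of RLU vs concentration.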

Broadly, the EC50 is the concentration giving half of the maximal effect. For orientation: IC50 means the concentration that gives 50% inhibition. `CC(=O)N1CCc2c(c(N3CCCc4cc(-c5cnn(C)c5)c(C(F)F)cc43)nn2C2CCN(C[C@@H]3CCN(c4ncc(C(=O)NC5C(C)(C)C(Oc6ccc(C#N)c(Cl)c6)C5(C)C)cn4)C[C@@H]3C)CC2)C1` (stereo partly drawn) [Compound 363] had an EC50 in the experiment on AR / CBP ternary complex of less than 1 nM. The compound also had an IC50 in the experiment on VCaP cells not above 0.1 nM.
Consider `Cn1c(=O)n(C)c2cc(N3CCCc4cc(-c5ccc(CCC6CCN(c7ncc(C(=O)NC8C(C)(C)C(Oc9ccc(C#N)c(Cl)c9)C8(C)C)cn7)CC6)nc5)c(C(F)F)cc43)ccc21` (stereo not drawn) [Compound 233, N-[3-(3-chloro-4-cyano-phenoxy)-2,2,4,4-tetramethyl-cyclobutyl]-2-[4-[2-[5-[7-(difluoromethyl)-1-(1,3-dimethyl-2-oxo-benzimidazol-5-yl)-3,4-dihydro-2H-quinolin-6-yl]-2-pyridyl]ethyl]-1-piperidyl]pyrimidine-5-carboxamide], for which the EC50 in the experiment with AR / CBP ternary complex was in the range of 1 to 10 nM. The concentration for half-maximal inhibition (IC50) with VCaP cells is more than 100 nM.
Taken in the same sequence, the figures for `CC(=O)N1CCc2c(c(N3CCCc4cnccc43)nn2C2CCN(C(=O)C3CCN(c4ncc(C(=O)NC5C(C)(C)C(Oc6ccc(C#N)c(Cl)c6)C5(C)C)cn4)CC3)CC2)C1` (stereo not drawn) [Compound 128, 2-[4-[4-[5-acetyl-3-(3,4-dihydro-2H-1,6-naphthyridin-1-yl)-6,7-dihydro-4H-pyrazolo[4,3-c]pyridin-1-yl]piperidine-1-carbonyl]-1-piperidyl]-N-[3-(3-chloro-4-cyano-phenoxy)-2,2,4,4-tetramethyl-cyclobutyl]pyrimidine-5-carboxamide] were more than 100 nM and more than 100 nM.
In the case of `CNC(=O)N1CCc2c(c(N3CCCc4cc(-c5cnn(C)c5)c(C(F)F)cc43)nn2C2CCN(c3ncc(C(=O)NC4C(C)(C)C(Oc5ccc(C#N)c(Cl)c5)C4(C)C)cn3)CC2)C1` (stereo not drawn) [Compound 93, 1-[1-[5-[[3-(3-chloro-4-cyano-phenoxy)-2,2,4,4-tetramethyl-cyclobutyl]carbamoyl]pyrimidin-2-yl]-4-piperidyl]-3-[7-(difluoromethyl)-6-(1-methylpyrazol-4-yl)-3,4-dihydro-2H-quinolin-1-yl]-N-methyl-6,7-dihydro-4H-pyrazolo[4,3-c]pyridine-5-carboxamide], the EC50 with AR / CBP ternary complex was more than 100 nM. The half-maximal inhibitory concentration (IC50) in the experiment with VCaP cells was 0.1 to 1 nM.
As for `COC1CN(c2ncc(C(=O)NC3C(C)(C)C(Oc4ccc(C#N)c(Cl)c4)C3(C)C)cn2)CCC1CN1CCC(n2nc(N3CCCc4cc(-c5cnn(C)c5)c(C(F)F)cc43)c3c2CCN(C(C)=O)C3)CC1` (stereo not drawn) [Compound 329, 2-[4-[[4-[5-acetyl-3-[7-(difluoromethyl)-6-(1-methylpyrazol-4-yl)-3,4-dihydro-2H-quinolin-1-yl]-6,7-dihydro-4H-pyrazolo[4,3-c]pyridin-1-yl]-1-piperidyl]methyl]-3-methoxy-1-piperidyl]-N-[3-(3-chloro-4-cyano-phenoxy)-2,2,4,4-tetramethyl-cyclobutyl]pyrimidine-5-carboxamide], the EC50 in the experiment with AR / CBP ternary complex is less than 1 nM. For the same compound, the IC50 in the experiment on VCaP cells was not above 0.1 nM.
With `COc1cc(OC2C(C)(C)C(NC(=O)c3ccc(N4CCC(CCc5ccc(-c6cc7c(cc6C(F)F)N(c6nn(C8CCOCC8)c8c6CN(C(C)=O)CC8)CCC7)cc5)CC4)cc3)C2(C)C)ccc1C#N` (stereo not drawn) [Compound 248, 4-[4-[2-[4-[1-(5-acetyl-1-tetrahydropyran-4-yl-6,7-dihydro-4H-pyrazolo[4,3-c]pyridin-3-yl)-7-(difluoromethyl)-3,4-dihydro-2H-quinolin-6-yl]phenyl]ethyl]-1-piperidyl]-N-[3-(4-cyano-3-methoxy-phenoxy)-2,2,4,4-tetramethyl-cyclobutyl]benzamide], the EC50 with AR / CBP ternary complex was less than 1 nM. Moreover, the IC50 in the experiment with VCaP cells was 0.1 to 1 nM.
Taken in the same sequence, the figures for `COc1cc(OC2C(C)(C)C(NC(=O)c3ccc(N4CC5(CCC(N6CCC(n7nc(N8CCCc9cc(-c%10ccn(C)n%10)c(C(F)F)cc98)c8c7CCN(C(C)=O)C8)CC6)CC5)C4)cc3)C2(C)C)ccc1C#N` (stereo not drawn) [Compound 432, 4-[7-[4-[5-acetyl-3-[7-(difluoromethyl)-6-(1-methylpyrazol-3-yl)-3,4-dihydro-2H-quinolin-1-yl]-6,7-dihydro-4H-pyrazolo[4,3-c]pyridin-1-yl]-1-piperidyl]-2-azaspiro[3.5]nonan-2-yl]-N-[3-(4-cyano-3-methoxy-phenoxy)-2,2,4,4-tetramethyl-cyclobutyl]benzamide] were less than 1 nM and not above 0.1 nM.
Consider `COc1cc(OC2C(C)(C)C(NC(=O)c3ccc(N4CCC5(CC(N6CCC(n7nc(N8CCCc9cc(-c%10cnn(C)c%10)c(C(F)F)cc98)c8c7CCN(C(C)=O)C8)CC6)C5)C4)cc3)C2(C)C)ccc1C#N` (stereo not drawn) [Compound 347, 4-[2-[4-[5-acetyl-3-[7-(difluoromethyl)-6-(1-methylpyrazol-4-yl)-3,4-dihydro-2H-quinolin-1-yl]-6,7-dihydro-4H-pyrazolo[4,3-c]pyridin-1-yl]-1-piperidyl]-6-azaspiro[3.4]octan-6-yl]-N-[3-(4-cyano-3-methoxy-phenoxy)-2,2,4,4-tetramethyl-cyclobutyl]benzamide], for which the EC50 in the experiment with AR / CBP ternary complex was less than 1 nM. The compound also came in with an IC50 with VCaP cells not above 0.1 nM.
Turning to `C[C@@H]1CC(=O)Nc2cccc(-c3ccc4c(c3)c(-c3cnn(C)c3)nn4C3CCN(c4ncc(C(=O)NC5C(C)(C)C(Oc6ccc(C#N)c(Cl)c6)C5(C)C)cn4)CC3)c2N1` (stereo partly drawn) [Compound 60, N-[3-(3-chloro-4-cyano-phenoxy)-2,2,4,4-tetramethyl-cyclobutyl]-2-[4-[5-[(4R)-4-methyl-2-oxo-1,3,4,5-tetrahydro-1,5-benzodiazepin-6-yl]-3-(1-methylpyrazol-4-yl)indazol-1-yl]-1-piperidyl]pyrimidine-5-carboxamide], in the experiment on AR / CBP ternary complex, the EC50 was more than 100 nM. Moreover, in the experiment on VCaP cells, the IC50 was more than 100 nM.
In the experiment with AR / CBP ternary complex, `CC(=O)N1CCc2c(c(N3CCCc4cc(-c5cnn(C)c5)c(C)cc43)nn2C2CCN(CC3CCN(c4ncc(C(=O)NC5C(C)(C)C(Oc6ccc(C#N)c(C)c6C)C5(C)C)cn4)CC3(C)C)CC2)C1` (stereo not drawn) [Compound 465, 2-[4-[[4-[5-acetyl-3-[7-methyl-6-(1-methylpyrazol-4-yl)-3,4-dihydro-2H-quinolin-1-yl]-6,7-dihydro-4H-pyrazolo[4,3-c]pyridin-1-yl]-1-piperidyl]methyl]-3,3-dimethyl-1-piperidyl]-N-[3-(4-cyano-2,3-dimethyl-phenoxy)-2,2,4,4-tetramethyl-cyclobutyl]pyrimidine-5-carboxamide] showed an EC50 of less than 1 nM. In the experiment on VCaP cells, this compound gave an IC50 of 0.1 to 1 nM.
Taken in the same sequence, the figures for `CC(=O)N1CCc2c(c(N3CCCc4cc(C#N)ccc43)nn2C2CC3(C2)CN(C(=O)C2CC4(C2)CN(c2ncc(C(=O)NC5C(C)(C)C(Oc6ccc(C#N)c(Cl)c6)C5(C)C)cn2)C4)C3)C1` (stereo not drawn) [Compound 220, 2-[6-[6-[5-acetyl-3-(6-cyano-3,4-dihydro-2H-quinolin-1-yl)-6,7-dihydro-4H-pyrazolo[4,3-c]pyridin-1-yl]-2-azaspiro[3.3]heptane-2-carbonyl]-2-azaspiro[3.3]heptan-2-yl]-N-[3-(3-chloro-4-cyano-phenoxy)-2,2,4,4-tetramethyl-cyclobutyl]pyrimidine-5-carboxamide] were less than 1 nM and 1 to 100 nM.
Regarding `CC(=O)N1CCc2c(c(N3CCCc4cc(C#N)ccc43)nn2C2CC3(C2)CN(CC2CC4(C2)CN(c2ncc(C(=O)NC5C(C)(C)C(Oc6ccc(C#N)c(Cl)c6)C5(C)C)cn2)C4)C3)C1` (stereo not drawn) [Compound 221, 2-[6-[[6-[5-acetyl-3-(6-cyano-3,4-dihydro-2H-quinolin-1-yl)-6,7-dihydro-4H-pyrazolo[4,3-c]pyridin-1-yl]-2-azaspiro[3.3]heptan-2-yl]methyl]-2-azaspiro[3.3]heptan-2-yl]-N-[3-(3-chloro-4-cyano-phenoxy)-2,2,4,4-tetramethyl-cyclobutyl]pyrimidine-5-carboxamide], the EC50 in the experiment on AR / CBP ternary complex was 1 to 10 nM. The same compound registered an IC50 in the experiment on VCaP cells of 1 to 100 nM.
In the case of `CC(=O)N1CCc2c(c(-c3cccc4cc(-c5cnn(CC6CCN(c7ncc(C(=O)NC8C(C)(C)C(Oc9ccc(C#N)c(Cl)c9)C8(C)C)cn7)CC6)c5)ncc34)nn2C)C1` (stereo not drawn) [Compound 215, 2-[4-[[4-[8-(5-acetyl-1-methyl-6,7-dihydro-4H-pyrazolo[4,3-c]pyridin-3-yl)-3-isoquinolyl]pyrazol-1-yl]methyl]-1-piperidyl]-N-[3-(3-chloro-4-cyano-phenoxy)-2,2,4,4-tetramethyl-cyclobutyl]pyrimidine-5-carboxamide], in the experiment with AR / CBP ternary complex, the EC50 was less than 1 nM. In the experiment with VCaP cells, this compound registered a half-inhibitory concentration (IC50) of 0.1 to 1 nM.
Taken in the same sequence, the figures for `COc1cc(OC2C(C)(C)C(NC(=O)c3ccc(N4CCC(C(=O)N5CCC(n6nc(-c7cccc8cc(C9CC9)c(C(F)F)cc78)c7c6CCN(C(C)=O)C7)CC5)CC4)cc3)C2(C)C)ccc1C#N` (stereo not drawn) [Compound 257, 4-[4-[4-[5-acetyl-3-[6-cyclopropyl-7-(difluoromethyl)-1-naphthyl]-6,7-dihydro-4H-pyrazolo[4,3-c]pyridin-1-yl]piperidine-1-carbonyl]-1-piperidyl]-N-[3-(4-cyano-3-methoxy-phenoxy)-2,2,4,4-tetramethyl-cyclobutyl]benzamide] were less than 1 nM and 0.1 to 1 nM.
Taken in the same sequence, the figures for `CC(=O)N1CCc2c(c(N3CCCc4cc(-c5cnn(C)c5)c(C)cc43)nn2C2CCN(C3CCC4(CC3)CN(c3ncc(C(=O)NC5C(C)(C)C(Oc6ccc(C#N)c(Cl)c6C)C5(C)C)cn3)C4)CC2)C1` (stereo not drawn) [Compound 473, 2-[7-[4-[5-acetyl-3-[7-methyl-6-(1-methylpyrazol-4-yl)-3,4-dihydro-2H-quinolin-1-yl]-6,7-dihydro-4H-pyrazolo[4,3-c]pyridin-1-yl]-1-piperidyl]-2-azaspiro[3.5]nonan-2-yl]-N-[3-(3-chloro-4-cyano-2-methyl-phenoxy)-2,2,4,4-tetramethyl-cyclobutyl]pyrimidine-5-carboxamide] were less than 1 nM and 0.1 to 1 nM.

Values taken from patent US20250129070A1, “BIFUNCTIONAL ANDROGEN RECEPTOR COMPOUNDS” (priority 2023, published 2025).
